Measurements reported in ChEMBL document CHEMBL3991601, “The target landscape of clinical kinase drugs” (Science, 2017).
Active and inactive are the calls of the source. Rule as the data show it, for most assays here: actives have a measured Kd and inactives only a lower limit.

Key:
[1] = molecular target: T1, Serine/threonine-protein kinase D3 (Homo sapiens, UniProt O94806)
T1 sequence (O94806 whole entry): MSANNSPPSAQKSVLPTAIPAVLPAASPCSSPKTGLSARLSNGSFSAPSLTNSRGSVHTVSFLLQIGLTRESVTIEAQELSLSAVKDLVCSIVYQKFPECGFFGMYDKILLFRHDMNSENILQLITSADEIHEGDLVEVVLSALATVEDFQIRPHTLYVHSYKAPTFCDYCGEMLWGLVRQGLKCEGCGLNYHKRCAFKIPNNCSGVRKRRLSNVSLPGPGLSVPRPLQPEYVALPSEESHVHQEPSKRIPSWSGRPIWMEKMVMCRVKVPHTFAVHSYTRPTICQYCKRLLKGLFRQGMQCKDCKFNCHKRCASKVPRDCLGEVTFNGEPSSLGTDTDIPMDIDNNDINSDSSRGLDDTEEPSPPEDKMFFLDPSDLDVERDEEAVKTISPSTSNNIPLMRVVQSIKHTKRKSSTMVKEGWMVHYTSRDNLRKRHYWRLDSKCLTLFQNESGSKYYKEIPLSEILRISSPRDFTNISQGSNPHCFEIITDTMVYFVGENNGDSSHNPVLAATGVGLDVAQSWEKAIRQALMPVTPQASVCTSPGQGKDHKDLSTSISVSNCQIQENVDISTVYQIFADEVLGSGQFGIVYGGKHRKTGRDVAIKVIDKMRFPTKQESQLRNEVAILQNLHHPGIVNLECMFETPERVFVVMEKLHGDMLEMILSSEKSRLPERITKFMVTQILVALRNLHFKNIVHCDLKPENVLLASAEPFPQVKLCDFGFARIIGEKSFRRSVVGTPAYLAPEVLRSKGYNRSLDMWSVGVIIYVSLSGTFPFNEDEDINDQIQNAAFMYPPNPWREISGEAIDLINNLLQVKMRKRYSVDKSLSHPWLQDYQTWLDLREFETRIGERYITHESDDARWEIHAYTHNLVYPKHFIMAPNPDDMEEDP

[2] = molecular target: Cyclin-dependent kinase 2 (Homo sapiens, UniProt P24941)
[3] = molecular target: Mitogen-activated protein kinase 10 (Homo sapiens, UniProt P53779)
Chain of Mitogen-activated protein kinase 10 (P53779 whole entry): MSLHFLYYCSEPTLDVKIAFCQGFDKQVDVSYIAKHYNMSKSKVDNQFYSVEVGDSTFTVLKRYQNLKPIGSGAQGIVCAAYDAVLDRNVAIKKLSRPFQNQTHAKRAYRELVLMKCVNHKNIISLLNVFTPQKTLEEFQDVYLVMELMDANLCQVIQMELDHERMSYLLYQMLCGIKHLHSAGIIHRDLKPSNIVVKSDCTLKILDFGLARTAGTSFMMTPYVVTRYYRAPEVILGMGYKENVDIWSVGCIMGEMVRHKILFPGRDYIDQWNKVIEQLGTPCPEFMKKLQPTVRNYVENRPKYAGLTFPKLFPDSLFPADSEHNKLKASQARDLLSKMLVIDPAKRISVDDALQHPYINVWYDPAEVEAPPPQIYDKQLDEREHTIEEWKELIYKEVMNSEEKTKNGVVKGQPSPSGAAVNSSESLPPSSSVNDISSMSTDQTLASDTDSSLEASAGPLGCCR

[4] = molecular target: AP2-associated protein kinase 1 (Homo sapiens, UniProt Q2M2I8)
Chain of AP2-associated protein kinase 1 (Q2M2I8 whole entry): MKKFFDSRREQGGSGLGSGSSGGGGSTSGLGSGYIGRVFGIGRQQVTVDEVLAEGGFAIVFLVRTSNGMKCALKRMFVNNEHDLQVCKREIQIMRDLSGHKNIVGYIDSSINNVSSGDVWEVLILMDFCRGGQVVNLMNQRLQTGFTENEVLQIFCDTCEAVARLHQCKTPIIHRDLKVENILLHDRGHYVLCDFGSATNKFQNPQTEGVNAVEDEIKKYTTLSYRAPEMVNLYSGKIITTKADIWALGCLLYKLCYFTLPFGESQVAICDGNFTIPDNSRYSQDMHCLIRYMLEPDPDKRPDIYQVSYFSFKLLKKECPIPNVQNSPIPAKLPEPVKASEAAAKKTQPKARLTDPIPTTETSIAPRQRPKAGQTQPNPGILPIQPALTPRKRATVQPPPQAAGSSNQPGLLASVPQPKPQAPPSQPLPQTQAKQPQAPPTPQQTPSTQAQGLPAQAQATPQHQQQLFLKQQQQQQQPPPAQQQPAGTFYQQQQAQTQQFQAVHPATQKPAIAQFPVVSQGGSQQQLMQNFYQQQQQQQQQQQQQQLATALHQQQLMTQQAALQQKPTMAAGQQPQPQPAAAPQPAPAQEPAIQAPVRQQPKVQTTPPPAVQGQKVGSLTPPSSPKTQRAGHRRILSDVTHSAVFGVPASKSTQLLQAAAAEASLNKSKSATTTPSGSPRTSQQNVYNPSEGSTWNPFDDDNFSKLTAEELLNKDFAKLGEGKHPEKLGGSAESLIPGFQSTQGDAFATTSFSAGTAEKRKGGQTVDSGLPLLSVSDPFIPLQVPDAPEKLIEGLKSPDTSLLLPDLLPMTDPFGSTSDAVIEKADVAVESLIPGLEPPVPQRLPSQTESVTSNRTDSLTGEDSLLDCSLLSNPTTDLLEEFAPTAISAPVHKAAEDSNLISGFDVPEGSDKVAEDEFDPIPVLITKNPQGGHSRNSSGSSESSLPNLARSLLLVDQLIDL

[5] = molecular target: Macrophage-stimulating protein receptor (Homo sapiens, UniProt Q04912)
Chain of Macrophage-stimulating protein receptor (Q04912 25-304 limits assumed): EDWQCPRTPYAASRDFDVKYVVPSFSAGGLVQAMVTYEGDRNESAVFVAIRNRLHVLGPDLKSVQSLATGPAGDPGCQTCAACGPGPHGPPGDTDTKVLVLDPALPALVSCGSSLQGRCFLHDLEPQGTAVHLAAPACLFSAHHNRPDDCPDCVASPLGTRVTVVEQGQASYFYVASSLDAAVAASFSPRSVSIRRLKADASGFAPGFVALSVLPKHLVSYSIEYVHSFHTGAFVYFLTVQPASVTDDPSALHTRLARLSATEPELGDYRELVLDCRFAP
Chain of Macrophage-stimulating protein receptor (Q04912 310-1400 limits assumed): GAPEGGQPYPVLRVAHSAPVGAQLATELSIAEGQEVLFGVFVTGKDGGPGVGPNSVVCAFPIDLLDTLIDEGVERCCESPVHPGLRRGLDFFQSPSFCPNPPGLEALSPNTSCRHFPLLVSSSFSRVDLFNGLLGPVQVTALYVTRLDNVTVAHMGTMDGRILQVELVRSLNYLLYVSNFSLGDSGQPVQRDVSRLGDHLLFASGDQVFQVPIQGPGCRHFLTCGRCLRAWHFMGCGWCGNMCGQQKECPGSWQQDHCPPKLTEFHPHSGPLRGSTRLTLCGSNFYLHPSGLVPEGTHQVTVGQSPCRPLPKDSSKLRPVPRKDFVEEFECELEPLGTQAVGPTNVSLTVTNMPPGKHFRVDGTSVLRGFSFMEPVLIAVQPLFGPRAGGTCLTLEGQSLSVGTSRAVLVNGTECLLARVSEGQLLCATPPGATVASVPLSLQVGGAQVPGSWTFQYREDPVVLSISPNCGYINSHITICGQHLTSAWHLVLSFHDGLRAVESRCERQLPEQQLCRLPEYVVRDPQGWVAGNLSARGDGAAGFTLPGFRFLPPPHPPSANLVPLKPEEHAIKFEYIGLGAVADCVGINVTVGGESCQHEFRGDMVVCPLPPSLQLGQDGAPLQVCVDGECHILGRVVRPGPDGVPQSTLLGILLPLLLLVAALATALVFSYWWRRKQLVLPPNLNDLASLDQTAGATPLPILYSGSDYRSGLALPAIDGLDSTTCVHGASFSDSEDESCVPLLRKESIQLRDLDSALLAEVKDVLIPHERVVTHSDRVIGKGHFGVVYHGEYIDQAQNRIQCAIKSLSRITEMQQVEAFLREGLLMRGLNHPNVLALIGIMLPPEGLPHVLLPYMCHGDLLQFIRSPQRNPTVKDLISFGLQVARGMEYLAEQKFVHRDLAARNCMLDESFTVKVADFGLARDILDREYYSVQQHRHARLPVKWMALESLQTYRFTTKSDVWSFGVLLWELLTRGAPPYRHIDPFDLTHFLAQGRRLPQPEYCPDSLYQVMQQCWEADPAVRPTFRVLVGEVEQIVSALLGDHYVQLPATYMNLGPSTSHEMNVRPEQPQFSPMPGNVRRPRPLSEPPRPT

[6] = molecular target: T2, Serine/threonine-protein kinase LATS1 (Homo sapiens, UniProt O95835)
T2 sequence (O95835 whole entry): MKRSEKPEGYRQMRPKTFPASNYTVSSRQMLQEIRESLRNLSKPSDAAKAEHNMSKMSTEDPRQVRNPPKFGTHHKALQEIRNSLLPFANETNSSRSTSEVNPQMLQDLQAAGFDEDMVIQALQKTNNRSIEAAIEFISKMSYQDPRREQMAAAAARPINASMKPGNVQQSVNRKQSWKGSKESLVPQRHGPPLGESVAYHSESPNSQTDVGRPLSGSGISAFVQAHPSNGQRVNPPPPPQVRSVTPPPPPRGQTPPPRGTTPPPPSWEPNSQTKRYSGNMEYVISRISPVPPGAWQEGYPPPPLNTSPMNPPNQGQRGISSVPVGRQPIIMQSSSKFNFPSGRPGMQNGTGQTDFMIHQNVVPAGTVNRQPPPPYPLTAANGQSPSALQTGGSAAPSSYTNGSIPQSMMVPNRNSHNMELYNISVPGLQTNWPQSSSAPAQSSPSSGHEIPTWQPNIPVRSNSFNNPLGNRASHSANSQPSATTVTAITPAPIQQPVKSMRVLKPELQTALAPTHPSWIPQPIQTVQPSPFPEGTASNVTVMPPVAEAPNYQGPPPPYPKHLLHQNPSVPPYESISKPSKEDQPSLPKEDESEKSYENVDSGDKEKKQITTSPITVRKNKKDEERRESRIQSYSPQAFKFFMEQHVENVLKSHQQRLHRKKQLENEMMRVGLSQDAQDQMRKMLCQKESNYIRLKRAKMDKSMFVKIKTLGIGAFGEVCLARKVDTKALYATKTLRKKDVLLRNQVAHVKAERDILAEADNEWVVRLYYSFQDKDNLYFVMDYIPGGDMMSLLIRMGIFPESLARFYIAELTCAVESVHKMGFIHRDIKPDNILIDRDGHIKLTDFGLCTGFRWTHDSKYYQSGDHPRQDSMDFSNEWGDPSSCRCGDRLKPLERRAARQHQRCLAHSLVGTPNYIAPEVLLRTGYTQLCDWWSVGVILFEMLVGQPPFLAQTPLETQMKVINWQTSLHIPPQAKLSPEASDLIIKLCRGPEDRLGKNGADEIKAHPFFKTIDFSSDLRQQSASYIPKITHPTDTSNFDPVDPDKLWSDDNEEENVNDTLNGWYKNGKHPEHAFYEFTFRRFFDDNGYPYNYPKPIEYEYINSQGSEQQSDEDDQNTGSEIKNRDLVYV

[7] = molecular target: BMP-2-inducible protein kinase (Homo sapiens, UniProt Q9NSY1)
Chain of BMP-2-inducible protein kinase (Q9NSY1 whole entry): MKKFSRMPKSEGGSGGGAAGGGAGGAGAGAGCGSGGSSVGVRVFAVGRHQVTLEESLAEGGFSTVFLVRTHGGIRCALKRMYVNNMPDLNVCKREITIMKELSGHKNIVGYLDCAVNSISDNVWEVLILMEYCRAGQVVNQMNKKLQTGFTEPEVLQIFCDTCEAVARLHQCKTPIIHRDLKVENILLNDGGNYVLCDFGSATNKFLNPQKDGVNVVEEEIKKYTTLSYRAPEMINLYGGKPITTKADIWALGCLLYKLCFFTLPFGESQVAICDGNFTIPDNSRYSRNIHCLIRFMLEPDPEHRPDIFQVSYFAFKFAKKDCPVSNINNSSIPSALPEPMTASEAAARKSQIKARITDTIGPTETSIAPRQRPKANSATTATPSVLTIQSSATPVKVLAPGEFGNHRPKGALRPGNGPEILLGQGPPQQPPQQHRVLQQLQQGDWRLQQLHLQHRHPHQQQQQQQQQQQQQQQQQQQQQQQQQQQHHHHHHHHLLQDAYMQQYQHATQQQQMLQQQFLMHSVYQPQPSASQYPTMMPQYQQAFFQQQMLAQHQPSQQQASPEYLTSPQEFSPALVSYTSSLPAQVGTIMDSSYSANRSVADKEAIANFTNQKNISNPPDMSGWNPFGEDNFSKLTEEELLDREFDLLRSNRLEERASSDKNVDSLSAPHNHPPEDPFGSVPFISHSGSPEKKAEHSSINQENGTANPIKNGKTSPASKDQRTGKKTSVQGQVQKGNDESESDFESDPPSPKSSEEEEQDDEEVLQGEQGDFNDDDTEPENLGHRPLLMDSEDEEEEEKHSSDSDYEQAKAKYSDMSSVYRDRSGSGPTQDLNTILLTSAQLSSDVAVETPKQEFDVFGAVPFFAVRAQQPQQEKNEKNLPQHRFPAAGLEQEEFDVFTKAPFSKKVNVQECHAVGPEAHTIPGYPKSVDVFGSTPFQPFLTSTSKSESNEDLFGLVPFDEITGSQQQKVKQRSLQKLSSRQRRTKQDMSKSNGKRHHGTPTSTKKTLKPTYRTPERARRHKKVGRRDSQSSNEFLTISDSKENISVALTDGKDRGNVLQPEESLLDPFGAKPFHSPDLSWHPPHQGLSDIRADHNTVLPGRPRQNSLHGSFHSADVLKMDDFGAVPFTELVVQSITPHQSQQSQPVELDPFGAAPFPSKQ

[8] = molecular target: T3, Ras-related protein Rab-10 (Homo sapiens, UniProt P61026)
T3 sequence (P61026 whole entry): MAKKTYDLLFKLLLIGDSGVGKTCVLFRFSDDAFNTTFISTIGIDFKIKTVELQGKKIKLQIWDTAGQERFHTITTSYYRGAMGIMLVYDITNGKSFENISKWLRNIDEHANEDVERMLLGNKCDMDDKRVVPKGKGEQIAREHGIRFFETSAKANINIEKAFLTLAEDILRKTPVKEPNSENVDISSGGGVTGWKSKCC
Also: in the data inactive means no Kd found up to 30 µM.

Row | Structure (SMILES) | Kd [1] | Kd [2] | Kd [3] | Kd [4] | Kd [5] | Kd [6] | Kd [7] | Kd [8]
1 | Cn1cc(-c2[nH]c3cc(NC(=O)[C@H](N)C4CCCCC4)cc4c3c2C=NNC4=O)cn1 | > 30 µM (inactive) | > 30 µM (inactive) | > 30 µM (inactive) | 0.002 µM (active) | > 30 µM (inactive) | 0.363 µM (active) | 0.006 µM (active) | > 30 µM (inactive)
2 | CCN1CCN(Cc2ccc(Nc3ncc(F)c(-c4cc(F)c5nc(C)n(C(C)C)c5c4)n3)nc2)CC1 [ABEMACICLIB] | 1.84 µM (active) | – | – | – | > 30 µM (inactive) | > 30 µM (inactive) | 56 µM (active) | > 30 µM (inactive)
3 | C=CCn1c(=O)c2cnc(Nc3ccc(N4CCN(C)CC4)cc3)nc2n1-c1cccc(C(C)(C)O)n1 [ADAVOSERTIB] | – | > 30 µM (inactive) | > 30 µM (inactive) | > 30 µM (inactive) | – | > 30 µM (inactive) | > 30 µM (inactive) | > 30 µM (inactive)
4 | CN(C)C/C=C/C(=O)Nc1cc2c(Nc3ccc(F)c(Cl)c3)ncnc2cc1O[C@H]1CCOC1 [AFATINIB] | – | – | – | – | – | – | – | > 30 µM (inactive)
5 | S=C(NCc1ccc2c(c1)OCO2)N1CCN(c2ncnc3c2oc2ccccc23)CC1 [AMUVATINIB] | > 30 µM (inactive) | > 30 µM (inactive) | – | > 30 µM (inactive) | > 30 µM (inactive) | > 30 µM (inactive) | > 30 µM (inactive) | > 30 µM (inactive)
6 | CCN(CCCOc1ccc2c(Nc3cc(CC(=O)Nc4cccc(F)c4)n[nH]3)ncnc2c1)CCOP(=O)(O)O [BARASERTIB] | – | > 30 µM (inactive) | – | > 30 µM (inactive) | – | > 30 µM (inactive) | > 30 µM (inactive) | > 30 µM (inactive)
7 | COc1cc2nccc(Oc3ccc(NC(=O)C4(C(=O)Nc5ccc(F)cc5)CC4)cc3)c2cc1OC [CABOZANTINIB] | > 30 µM (inactive) | > 30 µM (inactive) | > 30 µM (inactive) | > 30 µM (inactive) | – | > 30 µM (inactive) | > 30 µM (inactive) | > 30 µM (inactive)
8 | COc1cc2c(Oc3ccc4[nH]c(C)cc4c3F)ncnc2cc1OCCCN1CCCC1 [CEDIRANIB] | – | – | – | – | – | – | – | > 30 µM (inactive)
9 | COc1cc2ncnc(Nc3ccc(F)c(Cl)c3)c2cc1NC(=O)/C=C/CN1CCCCC1 [DACOMITINIB ANHYDROUS] | > 30 µM (inactive) | > 30 µM (inactive) | > 30 µM (inactive) | > 30 µM (inactive) | > 30 µM (inactive) | > 30 µM (inactive) | > 30 µM (inactive) | –
10 | Cn1c(=O)n(-c2ccc(C(C)(C)C#N)cc2)c2c3cc(-c4cnc5ccccc5c4)ccc3ncc21 [DACTOLISIB] | – | > 30 µM (inactive) | – | > 30 µM (inactive) | – | – | > 30 µM (inactive) | > 30 µM (inactive)
11 | O=S(=O)(c1cccc2cnccc12)N1CCCNCC1 [FASUDIL] | – | – | > 30 µM (inactive) | > 30 µM (inactive) | – | – | – | > 30 µM (inactive)
12 | C[C@]1(O)C[C@@H](c2nc(-c3ccc4ccc(-c5ccccc5)nc4c3)c3c(N)nccn32)C1 [LINSITINIB] | – | – | > 30 µM (inactive) | > 30 µM (inactive) | – | – | > 30 µM (inactive) | > 30 µM (inactive)
13 | O=C(NOC[C@H](O)CO)c1ccc(F)c(F)c1Nc1ccc(I)cc1F [MIRDAMETINIB] | > 30 µM (inactive) | > 30 µM (inactive) | > 30 µM (inactive) | > 30 µM (inactive) | > 30 µM (inactive) | – | > 30 µM (inactive) | > 30 µM (inactive)
14 | N#CCNC(=O)c1ccc(-c2ccnc(Nc3ccc(N4CCOCC4)cc3)n2)cc1 [MOMELOTINIB] | – | – | – | 0.004 µM (active) | > 30 µM (inactive) | – | – | –
15 | CC1(C)CNc2cc(NC(=O)c3cccnc3NCc3ccncc3)ccc21 [MOTESANIB] | – | – | – | – | – | – | – | > 30 µM (inactive)
16 | CN(c1ncccc1CNc1nc(Nc2ccc3c(c2)CC(=O)N3)ncc1C(F)(F)F)S(C)(=O)=O [PF-00562271] | – | 1.07 µM (active) | – | > 30 µM (inactive) | – | > 30 µM (inactive) | – | > 30 µM (inactive)
17 | CC(C)CC(=O)Nc1[nH]nc2c1CN(C(=O)C1CCN(C)CC1)C2(C)C [PHA-793887] | 0.065 µM (active) | – | > 30 µM (inactive) | > 30 µM (inactive) | > 30 µM (inactive) | > 30 µM (inactive) | > 30 µM (inactive) | > 30 µM (inactive)
18 | Cn1cnc2c(F)c(Nc3ccc(Br)cc3Cl)c(C(=O)NOCCO)cc21 [SELUMETINIB] | – | – | – | – | – | – | – | > 30 µM (inactive)
19 | COc1cc2c(N3CCN(C(=O)Nc4ccc(OC(C)C)cc4)CC3)ncnc2cc1OCCCN1CCCCC1 [TANDUTINIB] | – | – | – | – | – | – | – | > 30 µM (inactive)
20 | O[C@H]1CC[C@H](Nc2ncc3nc(Nc4c(F)cc(F)cc4F)n([C@H]4CCOC4)c3n2)CC1 [TANZISERTIB] | > 30 µM (inactive) | > 30 µM (inactive) | – | > 30 µM (inactive) | > 30 µM (inactive) | > 30 µM (inactive) | > 30 µM (inactive) | > 30 µM (inactive)
21 | COc1cc2ncnc(Nc3ccc(O)cc3)c2cc1OC [WHI-P131] | > 30 µM (inactive) | – | > 30 µM (inactive) | 1.07 µM (active) | > 30 µM (inactive) | > 30 µM (inactive) | > 30 µM (inactive) | > 30 µM (inactive)

Now from value to compound:

Row | Kd [1] | Kd [2] | Kd [3] | Kd [4] | Kd [5] | Kd [6] | Kd [7] | Kd [8] | Structure (SMILES)
22 | – | – | – | – | – | – | – | > 30 µM (inactive) | C[C@@]1(C(=O)Nc2ccc(F)nc2)CCCN1c1nc(Nc2cc(C3CC3)n[nH]2)c2cccn2n1 [BMS-754807]
23 | > 30 µM (inactive) | > 30 µM (inactive) | > 30 µM (inactive) | > 30 µM (inactive) | > 30 µM (inactive) | > 30 µM (inactive) | > 30 µM (inactive) | – | CCOc1ccn(-c2ccc(F)cc2)c(=O)c1C(=O)Nc1ccc(Oc2ccnc(N)c2Cl)c(F)c1 [BMS-777607]
24 | 0.09 µM (active) | – | 3.24 µM (active) | 2.61 µM (active) | > 30 µM (inactive) | > 30 µM (inactive) | 1.47 µM (active) | > 30 µM (inactive) | c1cc(OCCN2CCCCC2)cc(-c2n[nH]c3ccc(-c4nc[nH]n4)cc23)c1 [CC-401]
25 | – | > 30 µM (inactive) | > 30 µM (inactive) | > 30 µM (inactive) | > 30 µM (inactive) | > 30 µM (inactive) | > 30 µM (inactive) | > 30 µM (inactive) | CC(C)(O)CC(=O)NCCn1ccc2ncnc(Nc3ccc(Oc4cccc(C(F)(F)F)c4)c(Cl)c3)c21 [TAK-285]
26 | > 30 µM (inactive) | > 30 µM (inactive) | – | > 30 µM (inactive) | > 30 µM (inactive) | > 30 µM (inactive) | > 30 µM (inactive) | > 30 µM (inactive) | NC(=O)c1ccc(N(C(N)=O)c2c(F)cccc2F)nc1-c1ccc(F)cc1F [VX-702]
